≈ marks a conversion by molar mass, not a printed value.
Experiments:
physchem [1] = details: octanol/water, pH 2
Description: Octanol/water partition coefficient, log D of the compound at pH 2

physchem [2] = details: octanol/water, pH 11
Description: Octanol/water partition coefficient, log D of the compound at pH 11

physchem [3] = details: pH 6.8 buffer
physchem [4] = details: pH 6.8 buffer; remark: listed apart in the source
in vitro [5] = details: human, Caco-2
Description: Permeability across apical to basolateral side in human Caco2 cells measured up to 2 hrs by LC-MS/MS analysis or scintillation counting method

in vitro [6] = details: human, Caco-2; remark: listed apart in the source
Description: Efflux ratio of permeability in human Caco2 cells measured up to 2 hrs by LC-MS/MS analysis or scintillation counting method

[7] = 168 h
Description: Chemical stability of the compound in MeOH/NH3 solution at pH >10 assessed as compound decomposition measured after 7 days by UV-RP-HPLC analysis

in vitro [8] = details: human, liver microsomes
Description: Half life in human liver microsomes at 1 uM incubated prior to NADPH addition by LC-MS/MS analysis

in vitro [9] = details: human, liver microsomes; remark: listed apart in the source
Description: Stability in human liver microsomes at 1 uM incubated prior to NADPH addition by LC-MS/MS analysis relative to hepatic blood flow

physchem [10] = details: MeOH/HCl solution
Description: Chemical stability of the compound in MeOH/HCl solution at pH <1 assessed as compound decomposition measured after 7 days by UV-RP-HPLC analysis

[11] = Basic dissociation constant, pKb of the compound by UV absorption spectra analysis or potentiometric titration technique; type: physicochemical

Which logD (physchem [1]) does the source give for CNC(=O)c1ccc(C(F)(F)F)cc1 here?
Its logD is 1.9.

And the logD (physchem [2])?
The logD was 1.6.

And the solubility thermodynamic at 24 h (physchem [3])?
The solubility thermodynamic at 24 h was > 51 µg/mL.

What about the solubility thermodynamic at 24 h (physchem [4]) of the same molecule?
Its solubility thermodynamic at 24 h is 200 µg/mL (≈ 984 µM).

What about the Papp A→B at 2 h (in vitro [5]) of the same molecule?
The Papp A→B at 2 h was 56 ×10⁻⁶ cm/s.

What about the efflux ratio at 2 h (in vitro [6]) of the same molecule?
The efflux ratio at 2 h was 0.9.

For CC(C)OP(=O)(OC(C)C)c1ccc(C(F)(F)F)cc1, which Drug degradation [7] is on record?
Its Drug degradation is < 10%.

What about the logD (physchem [1]) of the same molecule?
The logD was 4.3.

What about the logD (physchem [2]) of the same molecule?
The logD was 4.2.

And the half-life at 1 µM (in vitro [8])?
The half-life at 1 µM was > 2.17 h.

And the hepatic extraction ratio at 1 µM (in vitro [9])?
The hepatic extraction ratio at 1 µM was < 0.23.

And the solubility thermodynamic at 24 h (physchem [3])?
Its solubility thermodynamic at 24 h is 29 µg/mL (≈ 93.5 µM).

What about the solubility thermodynamic at 24 h (physchem [4]) of the same molecule?
Its solubility thermodynamic at 24 h is 400 µg/mL (≈ 1290 µM).

And the Papp A→B at 2 h (in vitro [5])?
The Papp A→B at 2 h was 84 ×10⁻⁶ cm/s.

And the efflux ratio at 2 h (in vitro [6])?
Its efflux ratio at 2 h is 0.5.

And the degraded at 168 h (physchem [10])?
Its degraded at 168 h is < 10%.

Which results are given for O=P1(c2ccc(C(F)(F)F)cc2)CCNCC1?
pKb [11]: 6.9; Drug degradation [7]: < 10%; logD (physchem [1]): 0; logD (physchem [2]): 0.5; half-life at 1 µM (in vitro [8]): > 2.17 h; hepatic extraction ratio at 1 µM (in vitro [9]): < 0.23; solubility thermodynamic at 24 h (physchem [3]): > 61 µg/mL; solubility thermodynamic at 24 h (physchem [4]): 28000 µg/mL (≈ 106000 µM); Papp A→B at 2 h (in vitro [5]): 13 ×10⁻⁶ cm/s; efflux ratio at 2 h (in vitro [6]): 1.1; degraded at 168 h (physchem [10]): < 10%

With COC(=O)c1ccc(C(F)(F)F)cc1 as the molecule, how does the solubility thermodynamic at 24 h (physchem [3]) read?
The solubility thermodynamic at 24 h was < 1 µg/mL.

What about the solubility thermodynamic at 24 h (physchem [4]) of the same molecule?
The solubility thermodynamic at 24 h was 20 µg/mL (≈ 98 µM).

With CNS(=N)(=O)c1ccc(C(F)(F)F)cc1 (stereo not given) as the molecule, how does the pKb [11] read?
Its pKb is 2.4.

What about the logD (physchem [1]) of the same molecule?
The logD was 0.8.

And the logD (physchem [2])?
Its logD is 1.

What about the solubility thermodynamic at 24 h (physchem [3]) of the same molecule?
The solubility thermodynamic at 24 h was > 54 µg/mL.

What about the solubility thermodynamic at 24 h (physchem [4]) of the same molecule?
The solubility thermodynamic at 24 h was 6900 µg/mL (≈ 29000 µM).

And the Papp A→B at 2 h (in vitro [5])?
The Papp A→B at 2 h was 70 ×10⁻⁶ cm/s.

What about the efflux ratio at 2 h (in vitro [6]) of the same molecule?
Its efflux ratio at 2 h is 0.9.

With CCOC(=O)c1ccc(C(=O)Nc2ccc(C)c(Nc3nccc(-c4cccnc4)n3)c2)cc1 as the molecule, how does the logD (physchem [1]) read?
Its logD is 1.9.

What about the logD (physchem [2]) of the same molecule?
Its logD is 3.5.

What about the half-life at 1 µM (in vitro [8]) of the same molecule?
Its half-life at 1 µM is < 0.0833 h.

What about the hepatic extraction ratio at 1 µM (in vitro [9]) of the same molecule?
The hepatic extraction ratio at 1 µM was > 0.88.

And the solubility thermodynamic at 24 h (physchem [3])?
Its solubility thermodynamic at 24 h is < 1 µg/mL.

Which logD (physchem [1]) does the source give for CCOP(C)(=O)c1ccc(C(=O)Nc2ccc(C)c(Nc3nccc(-c4cccnc4)n3)c2)cc1 (stereo not given) here?
The logD was 0.9.

What about the logD (physchem [2]) of the same molecule?
Its logD is 2.2.

What about the half-life at 1 µM (in vitro [8]) of the same molecule?
The half-life at 1 µM was 0.8 h.

What about the hepatic extraction ratio at 1 µM (in vitro [9]) of the same molecule?
Its hepatic extraction ratio at 1 µM is 0.45.

What about the solubility thermodynamic at 24 h (physchem [3]) of the same molecule?
The solubility thermodynamic at 24 h was 51 µg/mL (≈ 105 µM).

What about the Papp A→B at 2 h (in vitro [5]) of the same molecule?
The Papp A→B at 2 h was 5 ×10⁻⁶ cm/s.

What about the efflux ratio at 2 h (in vitro [6]) of the same molecule?
The efflux ratio at 2 h was 9.9.

With CNC(=O)c1ccc(C(=O)Nc2ccc(C)c(Nc3nccc(-c4cccnc4)n3)c2)cc1 as the molecule, how does the logD (physchem [1]) read?
The logD was 0.5.

And the logD (physchem [2])?
The logD was 1.7.

And the half-life at 1 µM (in vitro [8])?
The half-life at 1 µM was > 2.17 h.

And the hepatic extraction ratio at 1 µM (in vitro [9])?
Its hepatic extraction ratio at 1 µM is < 0.23.

What about the solubility thermodynamic at 24 h (physchem [3]) of the same molecule?
Its solubility thermodynamic at 24 h is < 1 µg/mL.

And the Papp A→B at 2 h (in vitro [5])?
Its Papp A→B at 2 h is 8 ×10⁻⁶ cm/s.

And the efflux ratio at 2 h (in vitro [6])?
Its efflux ratio at 2 h is 4.9.

Which logD (physchem [1]) does the source give for Cc1ccc(NC(=O)c2ccc(C(=O)N(C)C)cc2)cc1Nc1nccc(-c2cccnc2)n1 here?
Its logD is 0.7.

And the logD (physchem [2])?
The logD was 2.

And the half-life at 1 µM (in vitro [8])?
The half-life at 1 µM was 1.12 h.

And the hepatic extraction ratio at 1 µM (in vitro [9])?
Its hepatic extraction ratio at 1 µM is 0.37.

And the solubility thermodynamic at 24 h (physchem [3])?
The solubility thermodynamic at 24 h was < 1 µg/mL.

And the Papp A→B at 2 h (in vitro [5])?
The Papp A→B at 2 h was 19 ×10⁻⁶ cm/s.

What about the efflux ratio at 2 h (in vitro [6]) of the same molecule?
Its efflux ratio at 2 h is 2.2.

Which Drug degradation [7] does the source give for CP(C)(=O)c1ccc(C(F)(F)F)cc1 here?
The Drug degradation was < 10%.

And the logD (physchem [1])?
Its logD is 1.5.

What about the logD (physchem [2]) of the same molecule?
The logD was 1.1.

And the half-life at 1 µM (in vitro [8])?
The half-life at 1 µM was > 2.17 h.

What about the hepatic extraction ratio at 1 µM (in vitro [9]) of the same molecule?
Its hepatic extraction ratio at 1 µM is < 0.23.

And the solubility thermodynamic at 24 h (physchem [3])?
The solubility thermodynamic at 24 h was > 52 µg/mL.

What about the solubility thermodynamic at 24 h (physchem [4]) of the same molecule?
The solubility thermodynamic at 24 h was > 30000 µg/mL.

What about the Papp A→B at 2 h (in vitro [5]) of the same molecule?
The Papp A→B at 2 h was 82 ×10⁻⁶ cm/s.

What about the efflux ratio at 2 h (in vitro [6]) of the same molecule?
The efflux ratio at 2 h was 0.5.

And the degraded at 168 h (physchem [10])?
Its degraded at 168 h is < 10%.

What does the source list for CN(C)S(=O)(=O)c1ccc(C(F)(F)F)cc1?
logD (physchem [1]): 3.4; solubility thermodynamic at 24 h (physchem [3]): 47 µg/mL (≈ 186 µM); solubility thermodynamic at 24 h (physchem [4]): 90 µg/mL (≈ 355 µM)

For CS(=N)(=O)c1ccc(C(F)(F)F)cc1 (stereo not given), which pKb [11] is on record?
Its pKb is 2.5.

And the logD (physchem [1])?
Its logD is 0.8.

And the logD (physchem [2])?
The logD was 0.9.

What about the solubility thermodynamic at 24 h (physchem [3]) of the same molecule?
The solubility thermodynamic at 24 h was > 50 µg/mL.

What about the solubility thermodynamic at 24 h (physchem [4]) of the same molecule?
The solubility thermodynamic at 24 h was 9100 µg/mL (≈ 40800 µM).

And the Papp A→B at 2 h (in vitro [5])?
The Papp A→B at 2 h was 88 ×10⁻⁶ cm/s.

What about the efflux ratio at 2 h (in vitro [6]) of the same molecule?
The efflux ratio at 2 h was 0.7.

What does the source list for CC(C)(C)OC(=O)c1ccc(C(F)(F)F)cc1?
solubility thermodynamic at 24 h (physchem [3]): 7 µg/mL (≈ 28.4 µM); solubility thermodynamic at 24 h (physchem [4]): 20 µg/mL (≈ 81.2 µM)

Which logD (physchem [1]) does the source give for CCOP(=O)(OCC)c1ccncc1 here?
Its logD is 0.

What about the logD (physchem [2]) of the same molecule?
Its logD is 0.2.

And the half-life at 1 µM (in vitro [8])?
Its half-life at 1 µM is > 2.17 h.

And the hepatic extraction ratio at 1 µM (in vitro [9])?
The hepatic extraction ratio at 1 µM was < 0.23.

What about the solubility thermodynamic at 24 h (physchem [3]) of the same molecule?
Its solubility thermodynamic at 24 h is > 50 µg/mL.

What about the solubility thermodynamic at 24 h (physchem [4]) of the same molecule?
Its solubility thermodynamic at 24 h is 29500 µg/mL (≈ 137000 µM).

And the Papp A→B at 2 h (in vitro [5])?
The Papp A→B at 2 h was 66 ×10⁻⁶ cm/s.

What about the efflux ratio at 2 h (in vitro [6]) of the same molecule?
The efflux ratio at 2 h was 0.7.

With CN=S(=O)(c1ccc(C(F)(F)F)cc1)N(C)C (stereo not given) as the molecule, how does the logD (physchem [1]) read?
Its logD is 2.2.

What about the logD (physchem [2]) of the same molecule?
Its logD is 2.9.

What about the solubility thermodynamic at 24 h (physchem [3]) of the same molecule?
The solubility thermodynamic at 24 h was 49 µg/mL (≈ 184 µM).

And the solubility thermodynamic at 24 h (physchem [4])?
The solubility thermodynamic at 24 h was 1200 µg/mL (≈ 4510 µM).

And the Papp A→B at 2 h (in vitro [5])?
The Papp A→B at 2 h was 70 ×10⁻⁶ cm/s.

And the efflux ratio at 2 h (in vitro [6])?
Its efflux ratio at 2 h is 0.8.

Which logD (physchem [1]) does the source give for CN=S(C)(=O)c1ccc(C(F)(F)F)cc1 (stereo not given) here?
The logD was 0.7.

What about the logD (physchem [2]) of the same molecule?
The logD was 1.7.

And the solubility thermodynamic at 24 h (physchem [3])?
The solubility thermodynamic at 24 h was > 54 µg/mL.

What about the solubility thermodynamic at 24 h (physchem [4]) of the same molecule?
The solubility thermodynamic at 24 h was 2400 µg/mL (≈ 10100 µM).

And the Papp A→B at 2 h (in vitro [5])?
The Papp A→B at 2 h was 67 ×10⁻⁶ cm/s.

What about the efflux ratio at 2 h (in vitro [6]) of the same molecule?
Its efflux ratio at 2 h is 1.

Which Drug degradation [7] does the source give for O=P1(c2ccc(C(F)(F)F)cc2)CCCC1 here?
The Drug degradation was < 10%.

What about the logD (physchem [1]) of the same molecule?
Its logD is 2.

And the logD (physchem [2])?
Its logD is 1.7.

What about the half-life at 1 µM (in vitro [8]) of the same molecule?
Its half-life at 1 µM is > 2.17 h.

And the hepatic extraction ratio at 1 µM (in vitro [9])?
Its hepatic extraction ratio at 1 µM is < 0.23.

What about the solubility thermodynamic at 24 h (physchem [3]) of the same molecule?
The solubility thermodynamic at 24 h was > 59 µg/mL.

What about the solubility thermodynamic at 24 h (physchem [4]) of the same molecule?
The solubility thermodynamic at 24 h was 24500 µg/mL (≈ 98700 µM).

What about the Papp A→B at 2 h (in vitro [5]) of the same molecule?
Its Papp A→B at 2 h is 69 ×10⁻⁶ cm/s.

What about the efflux ratio at 2 h (in vitro [6]) of the same molecule?
Its efflux ratio at 2 h is 0.7.

What about the degraded at 168 h (physchem [10]) of the same molecule?
Its degraded at 168 h is < 10%.

Which results are given for CN=S(=O)(NC)c1ccc(C(F)(F)F)cc1 (stereo not given)?
logD (physchem [1]): 0.7; logD (physchem [2]): 1.8; solubility thermodynamic at 24 h (physchem [3]): > 57 µg/mL; solubility thermodynamic at 24 h (physchem [4]): 1200 µg/mL (≈ 4760 µM); Papp A→B at 2 h (in vitro [5]): 81 ×10⁻⁶ cm/s; efflux ratio at 2 h (in vitro [6]): 0.5
